In US20050222423A1, “Carboxylic acid derivative” (TAISHO PHAR[…]., LTD., priority 2001, published 2005):
Values after ≈ are worked out from the molar mass of the structure shown.

Tests used:
[1] = pH 6.9; phosphate buffer 20 mM; 25° C.
Protocol: 1 mg of a test compound was weighed out in a threaded test tube, 1 ml of a phosphate buffer (pH: 6.8; 20 mM; ion intensity=0.15) was added thereto and, after shaking for 2 hours at room temperature under light-shielded condition, was incubated for 22 hours at 25° C. A supernatant obtained by centrifuging the test tube for 10 minutes at 3000 rpm at 25° C. was further centrifuged for 10 minutes at 11000 rpm at 25° C. The thus-obtained supernatant was diluted with a water/acetonitrile (1:1) mixture with a dilution ratio of 2 times to 21 times to prepare a sample solution (A). Also, 0.5 mg of the test compound was dissolved in 5 ml of acetonitrile, and diluted two times with acetonitrile to prepare a standard solution (B). 10 μl of the sample solution (A) and 10 μl of the standard solution (B) were subjected to measurement according to HPLC method to determine a peak area of the test compound in each of the solutions. The solubility (mg/ml) of the test compound was calculated according to the following equation using the measured values.
Column temperature: 40° C.

Flt-1 = biological target: T1, Flt-1 (Homo sapiens, UniProt P17948); test: VEGF Receptor-Binding Test ([125I]-VEGF binding to NIH3T3 cells in which Flt-1 was forced to be expressed); details: test compound concentration 1 μg/ml; [125I]-VEGF 25 pM; 90 minutes at 4° C.
T1 construct: expressed in transfected cells; host or cells: NIH3T3 cells (G418-selected)
Protocol: According to the method described in a document (Cell Growth & Differentiation, vol. 7, pp. 213-221, 1996), the following tests were carried out.
NIH3T3 cells, in which Flt-1 was forced to be expressed, were seeded on a 24-well collagen-coated plate (7×10^4 cells/well), and were cultured in Dulbecco's modified Eagle's medium (DMEM) containing 10% bovine serum and 200 μg/ml of Geneticin G418 for 24 hours at 37° C. under an atmosphere of 5% carbon dioxide gas. The cells were preincubated in Buffer A [containing 10 mM HEPES (N-2-hydroxyethylpiperazine-N′-2-ethanesulfonic acid) and 0.1% BSA (bovine serum albumin) in DMEM] for 30 minutes at 4° C. Subsequently, the medium was replaced with Buffer B (containing 10 mM HEPES and 0.5% BSA in DMEM). […] The radioactivity of the lysed cells in each well was measured by means of a gamma counter, and a total binding quantity of [^125I]-VEGF was calculated. Non-specific binding quantity of [^125I]-VEGF was measured by competition assay in the presence of 10 nM non-labeled VEGF. The specific binding quantity of [^125I]-VEGF was calculated from the difference between the total binding quantity of [^125I]-VEGF and non-specific binding quantity of ^125I]-VEGF. The binding inhibition index of the test compounds was calculated by the following equation.

T1 sequence (P17948 27-1338): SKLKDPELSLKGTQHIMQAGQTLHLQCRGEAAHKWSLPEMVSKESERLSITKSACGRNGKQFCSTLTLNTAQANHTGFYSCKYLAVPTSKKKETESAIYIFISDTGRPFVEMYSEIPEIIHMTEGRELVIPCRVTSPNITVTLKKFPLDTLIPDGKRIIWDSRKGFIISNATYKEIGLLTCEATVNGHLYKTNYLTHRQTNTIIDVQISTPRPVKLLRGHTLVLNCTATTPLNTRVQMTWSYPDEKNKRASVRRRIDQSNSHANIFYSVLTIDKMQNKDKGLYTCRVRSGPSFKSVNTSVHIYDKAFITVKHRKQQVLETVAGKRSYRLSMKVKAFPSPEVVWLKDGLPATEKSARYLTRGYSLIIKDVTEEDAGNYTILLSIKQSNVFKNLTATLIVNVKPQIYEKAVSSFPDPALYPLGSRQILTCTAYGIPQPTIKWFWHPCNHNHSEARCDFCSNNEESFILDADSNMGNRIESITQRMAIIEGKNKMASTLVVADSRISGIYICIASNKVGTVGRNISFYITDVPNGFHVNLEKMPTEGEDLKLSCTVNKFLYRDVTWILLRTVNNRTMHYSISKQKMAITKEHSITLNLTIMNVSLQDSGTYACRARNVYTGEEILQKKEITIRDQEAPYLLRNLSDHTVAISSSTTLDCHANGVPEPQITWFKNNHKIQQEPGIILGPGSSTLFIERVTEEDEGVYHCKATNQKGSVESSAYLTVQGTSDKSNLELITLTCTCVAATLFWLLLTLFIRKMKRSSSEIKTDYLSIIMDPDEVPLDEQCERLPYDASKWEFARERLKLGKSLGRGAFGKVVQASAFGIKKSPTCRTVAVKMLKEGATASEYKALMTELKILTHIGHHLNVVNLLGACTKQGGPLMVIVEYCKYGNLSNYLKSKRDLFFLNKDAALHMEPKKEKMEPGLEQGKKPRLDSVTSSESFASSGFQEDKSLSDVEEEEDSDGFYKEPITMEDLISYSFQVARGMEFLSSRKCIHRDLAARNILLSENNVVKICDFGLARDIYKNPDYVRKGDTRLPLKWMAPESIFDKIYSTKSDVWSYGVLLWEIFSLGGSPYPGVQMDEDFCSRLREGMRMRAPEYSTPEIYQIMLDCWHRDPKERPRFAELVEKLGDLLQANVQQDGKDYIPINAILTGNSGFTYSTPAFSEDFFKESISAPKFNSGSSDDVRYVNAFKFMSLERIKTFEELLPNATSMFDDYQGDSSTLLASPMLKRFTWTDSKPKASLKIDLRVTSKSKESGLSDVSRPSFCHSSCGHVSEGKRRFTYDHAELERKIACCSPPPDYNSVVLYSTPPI

Compound: CCCCCCCCCCCCCCCCCCOc1ccc(CCC(=O)Nc2ccc(Oc3ccc(C(=O)O)cc3)c(C(=O)O)c2)cc1 [a, 5-Amino-2-(4-carboxyphenoxy)-N-[3-{4-(1-octadecyloxy)-phenyl}propionyl]benzoic acid]
- Solubility [1]: 0.029 µg/mL (≈ 0.043 µM)
- Inhibition Index (Flt-1): 65%
